# In PubChem BioAssay (NCI):
#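 A five-concentration, 48-hour dose response in 96-well plates underlies each endpoint, interpolated linearly between surrounding concentrations. TGI marks complete inhibition of growth.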
# Experiments:
# Assay in all cases: NCI anticancer screen, dose series, 48 h
# 786-0 renal = tested on: 786-0 renal
# A498 renal = tested on: A498 renal
# A549 NSCLC = tested on: A549 NSCLC
# ACHN renal = tested on: ACHN renal
# CAKI-1 renal = tested on: CAKI-1 renal
# CCRF-CEM leukemia = tested on: CCRF-CEM leukemia
# COLO 205 colon = tested on: COLO 205 colon
# DLD-1 colon = tested on: DLD-1 colon
# DMS 114 small cell lung = tested on: DMS 114 small cell lung
# DMS 273 small cell lung = tested on: DMS 273 small cell lung
# EKVX NSCLC = tested on: EKVX NSCLC
# HCC-2998 colon = tested on: HCC-2998 colon
# HCT-116 colon = tested on: HCT-116 colon
# HCT-15 colon = tested on: HCT-15 colon
# HL-60(TB) leukemia = tested on: HL-60(TB) leukemia
# HOP-18 NSCLC = tested on: HOP-18 NSCLC
# HOP-62 NSCLC = tested on: HOP-62 NSCLC
# HT29 colon = tested on: HT29 colon
# IGROV1 ovarian = tested on: IGROV1 ovarian
# K-562 leukemia = tested on: K-562 leukemia
# KM12 colon = tested on: KM12 colon
# KM20L2 colon = tested on: KM20L2 colon
# LOX IMVI melanoma = tested on: LOX IMVI melanoma
# LXFL 529 NSCLC = tested on: LXFL 529 NSCLC
# M14 melanoma = tested on: M14 melanoma
# M19-MEL melanoma = tested on: M19-MEL melanoma
# MALME-3M melanoma = tested on: MALME-3M melanoma
# MOLT-4 leukemia = tested on: MOLT-4 leukemia
# NCI-H226 lung = tested on: NCI-H226 lung
# NCI-H23 lung = tested on: NCI-H23 lung
# NCI-H460 lung = tested on: NCI-H460 lung
# OVCAR-3 ovarian = tested on: OVCAR-3 ovarian
# OVCAR-4 ovarian = tested on: OVCAR-4 ovarian
# OVCAR-5 ovarian = tested on: OVCAR-5 ovarian
# OVCAR-8 ovarian = tested on: OVCAR-8 ovarian
# RPMI-8226 leukemia = tested on: RPMI-8226 leukemia
# SF-268 CNS = tested on: SF-268 CNS
# SF-295 CNS = tested on: SF-295 CNS
# SK-MEL-2 melanoma = tested on: SK-MEL-2 melanoma
# SK-MEL-28 melanoma = tested on: SK-MEL-28 melanoma
# SK-MEL-5 melanoma = tested on: SK-MEL-5 melanoma
# SK-OV-3 ovarian = tested on: SK-OV-3 ovarian
# SN12C renal = tested on: SN12C renal
# SNB-19 CNS = tested on: SNB-19 CNS
# SNB-75 CNS = tested on: SNB-75 CNS
# SNB-78 CNS = tested on: SNB-78 CNS
# SW-620 colon = tested on: SW-620 colon
# TK-10 renal = tested on: TK-10 renal
# U251 CNS = tested on: U251 CNS
# UACC-257 melanoma = tested on: UACC-257 melanoma
# UACC-62 melanoma = tested on: UACC-62 melanoma
# UO-31 renal = tested on: UO-31 renal
# RXF 393 renal = tested on: RXF 393 renal
# SF-539 CNS = tested on: SF-539 CNS
# SR leukemia = tested on: SR leukemia
# XF 498 CNS = tested on: XF 498 CNS
# HOP-92 NSCLC = tested on: HOP-92 NSCLC
# NCI-H522 lung = tested on: NCI-H522 lung
# RXF-631 renal = tested on: RXF-631 renal
structure (smiles),measurement,setting,value
COC(=O)[C@@]12C(=O)C=CC(=O)C1C1C(=CC2C)OC2OC3(CCCCC3)OC21 (stereo partly drawn),TGI,786-0 renal,32.4 µM
same,TGI,A498 renal,32.2 µM
same,TGI,A549 NSCLC,36.3 µM
same,TGI,ACHN renal,30.6 µM
same,TGI,CAKI-1 renal,33.4 µM
same,TGI,CCRF-CEM leukemia,7.49 µM
same,TGI,COLO 205 colon,28.4 µM
same,TGI,DLD-1 colon,35.7 µM
same,TGI,DMS 114 small cell lung,31.4 µM
same,TGI,DMS 273 small cell lung,36.2 µM
same,TGI,EKVX NSCLC,37.8 µM
same,TGI,HCC-2998 colon,28.2 µM
same,TGI,HCT-116 colon,29.8 µM
same,TGI,HCT-15 colon,31.1 µM
same,TGI,HL-60(TB) leukemia,15.7 µM
same,TGI,HOP-18 NSCLC,34.6 µM
same,TGI,HOP-62 NSCLC,35.8 µM
same,TGI,HT29 colon,44.9 µM
same,TGI,IGROV1 ovarian,35.1 µM
same,TGI,K-562 leukemia,74.6 µM
same,TGI,KM12 colon,36.4 µM
same,TGI,KM20L2 colon,38.4 µM
same,TGI,LOX IMVI melanoma,42.8 µM
same,TGI,LXFL 529 NSCLC,26.3 µM
same,TGI,M14 melanoma,33.6 µM
same,TGI,M19-MEL melanoma,35.1 µM
same,TGI,MALME-3M melanoma,37.8 µM
same,TGI,MOLT-4 leukemia,37.5 µM
same,TGI,NCI-H226 lung,33.7 µM
same,TGI,NCI-H23 lung,39.9 µM
same,TGI,NCI-H460 lung,35.7 µM
same,TGI,OVCAR-3 ovarian,33.8 µM
same,TGI,OVCAR-4 ovarian,30.3 µM
same,TGI,OVCAR-5 ovarian,27.8 µM
same,TGI,OVCAR-8 ovarian,30.9 µM
same,TGI,RPMI-8226 leukemia,26.4 µM
same,TGI,SF-268 CNS,48.6 µM
same,TGI,SF-295 CNS,32.9 µM
same,TGI,SK-MEL-2 melanoma,35.5 µM
same,TGI,SK-MEL-28 melanoma,33.6 µM
same,TGI,SK-MEL-5 melanoma,33.6 µM
same,TGI,SK-OV-3 ovarian,33.9 µM
same,TGI,SN12C renal,33.2 µM
same,TGI,SNB-19 CNS,31.9 µM
same,TGI,SNB-75 CNS,33.2 µM
same,TGI,SNB-78 CNS,42.3 µM
same,TGI,SW-620 colon,37.4 µM
same,TGI,TK-10 renal,31.6 µM
same,TGI,U251 CNS,31.6 µM
same,TGI,UACC-257 melanoma,31.5 µM
same,TGI,UACC-62 melanoma,29 µM
same,TGI,UO-31 renal,30.5 µM
O=c1cc(-c2ccc(Oc3ccccc3)cc2)[nH]c2cc3c(cc12)OCO3,TGI,786-0 renal,> 100 µM
same,TGI,A498 renal,> 100 µM
same,TGI,A549 NSCLC,> 100 µM
same,TGI,ACHN renal,> 100 µM
same,TGI,CCRF-CEM leukemia,> 100 µM
same,TGI,COLO 205 colon,> 100 µM
same,TGI,DLD-1 colon,> 100 µM
same,TGI,DMS 114 small cell lung,> 100 µM
same,TGI,DMS 273 small cell lung,> 100 µM
same,TGI,EKVX NSCLC,> 100 µM
same,TGI,HCC-2998 colon,> 100 µM
same,TGI,HCT-116 colon,> 100 µM
same,TGI,HCT-15 colon,> 100 µM
same,TGI,HL-60(TB) leukemia,> 100 µM
same,TGI,HOP-62 NSCLC,> 100 µM
same,TGI,HT29 colon,> 100 µM
same,TGI,IGROV1 ovarian,> 100 µM
same,TGI,K-562 leukemia,> 100 µM
same,TGI,KM20L2 colon,> 100 µM
same,TGI,LOX IMVI melanoma,> 100 µM
same,TGI,LXFL 529 NSCLC,> 100 µM
same,TGI,M14 melanoma,> 100 µM
same,TGI,M19-MEL melanoma,> 100 µM
same,TGI,MALME-3M melanoma,> 100 µM
same,TGI,MOLT-4 leukemia,> 100 µM
same,TGI,NCI-H226 lung,> 100 µM
same,TGI,NCI-H23 lung,> 100 µM
same,TGI,NCI-H460 lung,> 100 µM
same,TGI,OVCAR-3 ovarian,> 100 µM
same,TGI,OVCAR-4 ovarian,> 100 µM
same,TGI,OVCAR-8 ovarian,> 100 µM
same,TGI,RPMI-8226 leukemia,> 100 µM
same,TGI,RXF 393 renal,> 100 µM
same,TGI,SF-268 CNS,> 100 µM
same,TGI,SF-295 CNS,> 100 µM
same,TGI,SF-539 CNS,> 100 µM
same,TGI,SK-MEL-2 melanoma,> 100 µM
same,TGI,SK-MEL-28 melanoma,> 100 µM
same,TGI,SK-MEL-5 melanoma,> 100 µM
same,TGI,SN12C renal,> 100 µM
same,TGI,SNB-19 CNS,> 100 µM
same,TGI,SNB-75 CNS,> 100 µM
same,TGI,SR leukemia,> 100 µM
same,TGI,SW-620 colon,> 100 µM
same,TGI,TK-10 renal,> 100 µM
same,TGI,U251 CNS,> 100 µM
same,TGI,UACC-257 melanoma,> 100 µM
same,TGI,UACC-62 melanoma,> 100 µM
same,TGI,UO-31 renal,> 100 µM
same,TGI,XF 498 CNS,> 100 µM
CN=C(SC)N(C)c1nc(=[N+](C)C)ss1,TGI,786-0 renal,> 100 µM
same,TGI,A498 renal,> 100 µM
same,TGI,A549 NSCLC,> 100 µM
same,TGI,ACHN renal,> 100 µM
same,TGI,CAKI-1 renal,> 100 µM
same,TGI,CCRF-CEM leukemia,> 100 µM
same,TGI,DMS 273 small cell lung,> 100 µM
same,TGI,EKVX NSCLC,> 100 µM
same,TGI,HCC-2998 colon,> 100 µM
same,TGI,HCT-116 colon,> 100 µM
same,TGI,HCT-15 colon,> 100 µM
same,TGI,HL-60(TB) leukemia,> 100 µM
same,TGI,HOP-62 NSCLC,> 100 µM
same,TGI,HOP-92 NSCLC,> 100 µM
same,TGI,HT29 colon,> 100 µM
same,TGI,IGROV1 ovarian,> 100 µM
same,TGI,K-562 leukemia,69 µM
same,TGI,KM12 colon,> 100 µM
same,TGI,LOX IMVI melanoma,> 100 µM
same,TGI,LXFL 529 NSCLC,> 100 µM
same,TGI,M14 melanoma,> 100 µM
same,TGI,MOLT-4 leukemia,> 100 µM
same,TGI,NCI-H226 lung,> 100 µM
same,TGI,NCI-H23 lung,> 100 µM
same,TGI,NCI-H522 lung,> 100 µM
same,TGI,OVCAR-5 ovarian,> 100 µM
same,TGI,OVCAR-8 ovarian,> 100 µM
same,TGI,RXF 393 renal,> 100 µM
same,TGI,RXF-631 renal,16.4 µM
same,TGI,SF-268 CNS,> 100 µM
same,TGI,SF-295 CNS,> 100 µM
same,TGI,SK-MEL-2 melanoma,> 100 µM
same,TGI,SK-MEL-28 melanoma,> 100 µM
same,TGI,SK-MEL-5 melanoma,> 100 µM
same,TGI,SK-OV-3 ovarian,> 100 µM
same,TGI,SN12C renal,> 100 µM
same,TGI,SNB-19 CNS,> 100 µM
same,TGI,SNB-75 CNS,> 100 µM
same,TGI,SNB-78 CNS,> 100 µM
same,TGI,SR leukemia,> 100 µM
same,TGI,SW-620 colon,> 100 µM
same,TGI,TK-10 renal,> 100 µM
same,TGI,U251 CNS,> 100 µM
same,TGI,UACC-257 melanoma,> 100 µM
same,TGI,UACC-62 melanoma,> 100 µM
same,TGI,UO-31 renal,> 100 µM
same,TGI,XF 498 CNS,> 100 µM
CCCCNC1CCCCC[C@H]1O (stereo partly drawn),TGI,786-0 renal,> 100 µM
same,TGI,A549 NSCLC,> 100 µM
same,TGI,ACHN renal,> 100 µM
same,TGI,CAKI-1 renal,> 100 µM
same,TGI,CCRF-CEM leukemia,> 100 µM
same,TGI,COLO 205 colon,> 100 µM
same,TGI,DLD-1 colon,> 100 µM
same,TGI,DMS 114 small cell lung,> 100 µM
same,TGI,DMS 273 small cell lung,> 100 µM
same,TGI,EKVX NSCLC,> 100 µM
same,TGI,HCC-2998 colon,> 100 µM
same,TGI,HCT-116 colon,> 100 µM
same,TGI,HL-60(TB) leukemia,> 100 µM
same,TGI,HOP-18 NSCLC,> 100 µM
same,TGI,HOP-62 NSCLC,> 100 µM
same,TGI,HOP-92 NSCLC,> 100 µM
same,TGI,HT29 colon,> 100 µM
same,TGI,IGROV1 ovarian,> 100 µM
same,TGI,K-562 leukemia,> 100 µM
same,TGI,KM12 colon,> 100 µM
same,TGI,KM20L2 colon,> 100 µM
same,TGI,LOX IMVI melanoma,> 100 µM
same,TGI,LXFL 529 NSCLC,> 100 µM
same,TGI,M14 melanoma,> 100 µM
same,TGI,M19-MEL melanoma,> 100 µM
same,TGI,MOLT-4 leukemia,> 100 µM
same,TGI,NCI-H226 lung,> 100 µM
same,TGI,NCI-H23 lung,> 100 µM
same,TGI,NCI-H460 lung,> 100 µM
same,TGI,NCI-H522 lung,> 100 µM
same,TGI,OVCAR-3 ovarian,> 100 µM
same,TGI,OVCAR-4 ovarian,> 100 µM
same,TGI,OVCAR-5 ovarian,> 100 µM
same,TGI,OVCAR-8 ovarian,> 100 µM
same,TGI,RPMI-8226 leukemia,> 100 µM
same,TGI,RXF 393 renal,> 100 µM
same,TGI,SF-268 CNS,> 100 µM
same,TGI,SF-295 CNS,> 100 µM
same,TGI,SF-539 CNS,> 100 µM
same,TGI,SK-MEL-2 melanoma,> 100 µM
same,TGI,SK-MEL-28 melanoma,> 100 µM
same,TGI,SK-MEL-5 melanoma,> 100 µM
same,TGI,SK-OV-3 ovarian,> 100 µM
same,TGI,SN12C renal,> 100 µM
same,TGI,SNB-19 CNS,> 100 µM
same,TGI,SNB-75 CNS,> 100 µM
same,TGI,SNB-78 CNS,> 100 µM
same,TGI,SR leukemia,> 100 µM
same,TGI,SW-620 colon,> 100 µM
same,TGI,TK-10 renal,> 100 µM
same,TGI,U251 CNS,> 100 µM
same,TGI,UACC-257 melanoma,> 100 µM
same,TGI,UACC-62 melanoma,> 100 µM
same,TGI,UO-31 renal,> 100 µM
